Source: US20130252935A1, “Monobactams” (PFIZER INC., priority 2010, published 2013)
In brackets after ≈: the same amount, converted by molar mass.

Columns and labels:
Type in all cases: cell-based
[1] = tested on: Pseudomonas aeruginosa UC-12120; test: minimum inhibitory concentration (MIC) testing according to CLSI guidelines, Pseudomonas aeruginosa; conditions: UC-12120, wild-type, labeled as 1091-05, overnight incubation, lower of duplicate values; for MIC: Pseudomonas aeruginosa, UC12120, read-out: AB-MBT: Pseudomonas aeruginosa 1091-05: MIC (MstRcn)
Procedure, shortened: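 Broth dilution MIC per CLSI guidelines against wild-type P. aeruginosa UC-12120 (1091-05), using 2-fold drug dilutions and overnight incubation with visual reading of lowest growth-inhibiting concentration. Tested in duplicate; lower value reported when within 2-fold, with control organisms and reference compounds for quality control.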

[2] = tested on: Acinetobacter baumannii/haemolyticus AB-3167; test: minimum inhibitory concentration (MIC) testing according to CLSI guidelines, Acinetobacter; conditions: multidrug-resistant clinical isolate AB-3167, overnight incubation, lower of duplicate values; for MIC: Acinetobacter baumannii, read-out: AB-MBT: Acinetobacter baumanii AB-3167: MIC (MstRcnt)
Procedure, shortened: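 Broth dilution MIC per CLSI M7-A8/M100-S20 against multidrug-resistant clinical isolate AB-3167, using 2-fold drug dilutions and overnight incubation; MIC is the lowest concentration without visible growth. Duplicates within 2-fold reported as the lower value, with control strains and reference compounds in range.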

[3] = tested on: Klebsiella pneumoniae 1000-02; test: minimum inhibitory concentration (MIC) testing according to CLSI guidelines, Klebsiella pneumoniae; conditions: ciprofloxacin-resistant, ESBL-expressing clinical isolate 1000-02, overnight incubation, lower of duplicate values; for MIC: Klebsiella pneumoniae, read-out: AB-MBT: Klebsiella pneumoniae 1000-02: MIC (MstRcnt)
Procedure, shortened: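 MIC by CLSI broth dilution with 2-fold concentration steps and overnight incubation; lowest concentration visibly inhibiting growth versus drug-free control. Ciprofloxacin-resistant, ESBL-expressing clinical isolate 1000-02. Run in duplicate, lower value reported when within 2-fold, with QC organisms and reference compounds per run.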

Row | Compound | MIC [1] | MIC [3] | AB-MBT: Pseudomonas aeruginosa 1091-05: MIC (MstRcn) [1] | AB-MBT: Klebsiella pneumoniae 1000-02: MIC (MstRcnt) [3] | MIC [2] | AB-MBT: Acinetobacter baumanii AB-3167: MIC (MstRcnt) [2]
1 | C[C@@H](NC(=O)NCc1cc(=O)c(O)cn1O)C(=O)NC[C@@H]1[C@H](NC(=O)/C(=N\OC(C)(C)C(=O)O)c2csc(N)n2)C(=O)N1S(=O)(=O)O [Example 49, 2-({[(1Z)-1-(2-amino-1,3-thiazol-4-yl)-2-{[(2R,3S)-2-{[(N-{[(1,5-dihydroxy-4-oxo-1,4-dihydropyridin-2-yl)methyl]carbamoyl}-D-alanyl)amino]methyl}-4-oxo-1-sulfoazetidin-3-yl]amino}-2-oxoethylidene]amino}oxy)-2-methylpropanoic acid] | 0.5 µg/mL (≈ 0.711 µM) | 0.5 µg/mL (≈ 0.711 µM) |  |  | 0.5 µg/mL (≈ 0.711 µM) | 
2 | CC(C)(O/N=C(\C(=O)N[C@@H]1C(=O)N(S(=O)(=O)O)[C@@H]1CNc1cc(C(=O)NCc2cc(=O)c(O)cn2O)ccn1)c1csc(N)n1)C(=O)O [Example 50, 2-({[(1Z)-1-(2-amino-1,3-thiazol-4-yl)-2-{[(2R,3S)-2-{[(4-{[(1,5-dihydroxy-4-oxo-1,4-dihydropyridin-2-yl)methyl]carbamoyl}pyridin-2-yl)amino]methyl}-4-oxo-1-sulfoazetidin-3-yl]amino}-2-oxoethylidene]amino}oxy)-2-methylpropanoic acid] | 0.125 µg/mL (≈ 0.176 µM) | 0.5 µg/mL (≈ 0.705 µM) |  |  | 0.5 µg/mL (≈ 0.705 µM) | 
3 | CC(C)(O/N=C(\C(=O)N[C@@H]1C(=O)N(S(=O)(=O)O)[C@@H]1CNC(=O)c1ccc(CNC(=O)c2cc(O)c(O)cn2)cc1)c1csc(N)n1)C(=O)O [Example 51, 2-({[(1Z)-1-(2-amino-1,3-thiazol-4-yl)-2-{[(2R,3S)-2-({[4-({[(4,5-dihydroxypyridin-2-yl)carbonyl]amino}methyl)benzoyl]amino}methyl)-4-oxo-1-sulfoazetidin-3-yl]amino}-2-oxoethylidene]amino}oxy)-2-methylpropanoic acid] | 0.125 µg/mL (≈ 0.173 µM) | 2 µg/mL (≈ 2.78 µM) |  |  | 1 µg/mL (≈ 1.39 µM) | 
4 | CC(C)(O/N=C(\C(=O)N[C@@H]1C(=O)N(S(=O)(=O)O)[C@@H]1CNC(=O)c1ccc(NC(=O)c2cc(=O)c(O)cn2O)cc1)c1csc(N)n1)C(=O)O [Example 52, 2-({[(1Z)-1-(2-amino-1,3-thiazol-4-yl)-2-{[(2R,3S)-2-{[(4-{[(1,5-dihydroxy-4-oxo-1,4-dihydropyridin-2-yl)carbonyl]amino}benzoyl)amino]methyl}-4-oxo-1-sulfoazetidin-3-yl]amino}-2-oxoethylidene]amino}oxy)-2-methylpropanoic acid] | 0.5 µg/mL (≈ 0.692 µM) | 1 µg/mL (≈ 1.38 µM) |  |  | 0.5 µg/mL (≈ 0.692 µM) | 
5 | CC(C)(O/N=C(\C(=O)N[C@@H]1C(=O)N(S(=O)(=O)O)[C@@H]1CNC(=O)CNC(=O)NCc1cc(=O)c(O)cn1O)c1csc(N)n1)C(=O)O [Example 53, 2-({[(1Z)-1-(2-amino-1,3-thiazol-4-yl)-2-{[(2R,3S)-2-{[(N-{[(1,5-dihydroxy-4-oxo-1,4-dihydropyridin-2-yl)methyl]carbamoyl}glycyl)amino]methyl}-4-oxo-1-sulfoazetidin-3-yl]amino}-2-oxoethylidene]amino}oxy)-2-methylpropanoic acid] | 0.25 µg/mL (≈ 0.363 µM) | 1 µg/mL (≈ 1.45 µM) |  |  | 0.25 µg/mL (≈ 0.363 µM) | 
6 | C[C@H](NC(=O)c1cc(=O)c(O)cn1O)C(=O)NC[C@@H]1[C@H](NC(=O)/C(=N\OC(C)(C)C(=O)O)c2csc(N)n2)C(=O)N1S(=O)(=O)O [Example 54, 2-({[(1Z)-1-(2-amino-1,3-thiazol-4-yl)-2-({(2R,3S)-2-[({N-[(1,5-dihydroxy-4-oxo-1,4-dihydropyridin-2-yl)carbonyl]-L-alanyl}amino)methyl]-4-oxo-1-sulfoazetidin-3-yl}amino)-2-oxoethylidene]amino}oxy)-2-methylpropanoic acid] | 0.25 µg/mL (≈ 0.371 µM) | 1 µg/mL (≈ 1.48 µM) |  |  | 0.25 µg/mL (≈ 0.371 µM) | 
7 | C[C@H](NC(=O)NCc1cc(=O)c(O)cn1O)C(=O)NC[C@@H]1[C@H](NC(=O)/C(=N\OC(C)(C)C(=O)O)c2csc(N)n2)C(=O)N1S(=O)(=O)O [Example 55, 2-({[(1Z)-1-(2-amino-1,3-thiazol-4-yl)-2-{[(2R,3S)-2-{[(N-{[(1,5-dihydroxy-4-oxo-1,4-dihydropyridin-2-yl)methyl]carbamoyl}-L-alanyl)amino]methyl}-4-oxo-1-sulfoazetidin-3-yl]amino}-2-oxoethylidene]amino}oxy)-2-methylpropanoic acid] | 0.25 µg/mL (≈ 0.355 µM) | 2 µg/mL (≈ 2.84 µM) |  |  | 0.5 µg/mL (≈ 0.711 µM) | 

The next lines start with results.

Row | MIC [1] | MIC [3] | AB-MBT: Pseudomonas aeruginosa 1091-05: MIC (MstRcn) [1] | AB-MBT: Klebsiella pneumoniae 1000-02: MIC (MstRcnt) [3] | Compound | MIC [2] | AB-MBT: Acinetobacter baumanii AB-3167: MIC (MstRcnt) [2]
8 | 0.5 µg/mL (≈ 0.679 µM) | 1 µg/mL (≈ 1.36 µM) |  |  | CC(C)(O/N=C(\C(=O)N[C@@H]1C(=O)N(S(=O)(=O)O)[C@@H]1CNC(=O)Cc1cccc(NC(=O)c2cc(=O)c(O)cn2O)c1)c1csc(N)n1)C(=O)O [Example 56, 2-({[(1Z)-1-(2-amino-1,3-thiazol-4-yl)-2-{[(2R,3S)-2-({[(3-{[(1,5-dihydroxy-4-oxo-1,4-dihydropyridin-2-yl)carbonyl]amino}phenyl)acetyl]amino}methyl)-4-oxo-1-sulfoazetidin-3-yl]amino}-2-oxoethylidene]amino}oxy)-2-methylpropanoic acid] | 1 µg/mL (≈ 1.36 µM) | 
9 | 2 µg/mL (≈ 3.32 µM) | 4 µg/mL (≈ 6.64 µM) |  |  | CC(C)(O/N=C(\C(=O)N[C@@H]1C(=O)N(S(=O)(=O)O)[C@@H]1CNC(=O)Nc1cc(=O)c(O)c[nH]1)c1csc(N)n1)C(=O)O [Example 57, 2-({[(1Z)-1-(2-amino-1,3-thiazol-4-yl)-2-{[(2R,3S)-2-({[(5-hydroxy-4-oxo-1,4-dihydropyridin-2-yl)carbamoyl]amino}methyl)-4-oxo-1-sulfoazetidin-3-yl]amino}-2-oxoethylidene]amino}oxy)-2-methylpropanoic acid] | 1 µg/mL (≈ 1.66 µM) | 
10 | 0.25 µg/mL (≈ 0.406 µM) | 0.06 µg/mL (≈ 0.0975 µM) |  |  | Nc1nc(/C(=N/OC2(C(=O)O)CCC2)C(=O)N[C@@H]2C(=O)N(S(=O)(=O)O)[C@@H]2CNC(=O)c2cc(=O)c(O)cn2O)cs1 [Example 58, 1-({[(1Z)-1-(2-amino-1,3-thiazol-4-yl)-2-{[(2R,3S)-2-({[(1,5-dihydroxy-4-oxo-1,4-dihydropyridin-2-yl)carbonyl]amino}methyl)-4-oxo-1-sulfoazetidin-3-yl]amino}-2-oxoethylidene]amino}oxy)cyclobutanecarboxylic acid] | 0.25 µg/mL (≈ 0.406 µM) | 
11 |  |  | 0.250 µg/mL | 0.250 µg/mL | Nc1nc(/C(=N/OC2(C(=O)O)CCC2)C(=O)N[C@@H]2C(=O)N(S(=O)(=O)O)[C@@H]2CNC(=O)c2cccc(S(=O)(=O)NCc3cc(=O)c(O)cn3O)c2)cs1 [Example 59] |  | 0.250 µg/mL
12 | 0.125 µg/mL (≈ 0.178 µM) | 0.5 µg/mL (≈ 0.714 µM) |  |  | Nc1nc(/C(=N/OC2(C(=O)O)CCC2)C(=O)N[C@@H]2C(=O)N(S(=O)(=O)O)[C@@H]2CNC(=O)CCC(=O)NCc2cc(=O)c(O)cn2O)cs1 [Example 60, 1-({[(1Z)-1-(2-amino-1,3-thiazol-4-yl)-2-{[(2R,3S)-2-{[(4-{[(1,5-dihydroxy-4-oxo-1,4-dihydropyridin-2-yl)methyl]amino}-4-oxobutanoyl)amino]methyl}-4-oxo-1-sulfoazetidin-3-yl]amino}-2-oxoethylidene]amino}oxy)cyclobutanecarboxylic acid] | 0.25 µg/mL (≈ 0.357 µM) | 
13 | 32 µg/mL (≈ 43.7 µM) | 2 µg/mL (≈ 2.73 µM) |  |  | Nc1nc(/C(=N/OC2(C(=O)O)CCC2)C(=O)N[C@@H]2C(=O)N(S(=O)(=O)O)[C@@H]2CNC(=O)c2ccc(CNC(=O)c3cc(O)c(O)cn3)cc2)cs1 [Example 61, 1-({[(1Z)-1-(2-amino-1,3-thiazol-4-yl)-2-{[(2R,3S)-2-({[4-({[(4,5-dihydroxypyridin-2-yl)carbonyl]amino}methyl)benzoyl]amino}methyl)-4-oxo-1-sulfoazetidin-3-yl]amino}-2-oxoethylidene]amino}oxy)cyclobutanecarboxylic acid] | 1 µg/mL (≈ 1.36 µM) | 
